Reference: ChEMBL document CHEMBL3997835, “Isoquinoline alkaloids from Coptis japonica stimulate the myoblast differentiation via p38 MAP-kinase and Akt signaling pathway” (Bioorg Med Chem Lett, 2017)
Active and inactive are the calls of the source. The calls are words filed in the database; no cut-off is given here.

How the values were obtained:
C2C12 [1] = experiment: Induction of myoblast differentiation in mouse C2C12 cells expressing MyoD-responsive 4RTK-Luc assessed as increase in MHC protein expression at 10 nM after 2 days by Western blot analysis; format: functional, cell-based
C2C12 [2] = experiment: Induction of MyoD transcriptional activity in mouse C2C12 cells expressing MyoD-responsive 4RTK-Luc at 10 nM after 24 hrs by luciferase reporter gene assay; format: functional, cell-based
C2C12 [3] = experiment: Cytotoxicity against mouse C2C12 cells at 10 nM up to 24 hrs; format: cell-based; conditions: c2c12, 24 h, 0.01 µM
C2C12 [4] = experiment: Induction of myoblast differentiation in mouse C2C12 cells assessed as increase in MyoD protein expression after 2 days by Western blot analysis; format: functional, cell-based
C2C12 [5] = experiment: Induction of myoblast differentiation in mouse C2C12 cells assessed as increase in MHC protein expression after 2 days by Western blot analysis; format: functional, cell-based
[6] = biological target: MAP kinase p38 (Mus musculus) (UniProt P47811+O08911+Q9WUI1+Q9Z1B7); experiment: Induction of p38 MAPK phosphorylation in mouse C2C12 cells at 0.1 nM after 2 days by Western blot analysis relative to control; format: cell-based
C2C12 [7] = experiment: Induction of myoblast differentiation in mouse C2C12 cells assessed as increase in MHC expression after 2 days by DAPI staining based immunofluorescence assay; format: functional, cell-based
C2C12 [8] = experiment: Induction of myoblast differentiation in mouse C2C12 cells assessed as cylinder shaped multinucleated myotubes after 2 days by DAPI staining based immunofluorescence assay; format: functional, cell-based
[9] = biological target: RAC-alpha serine/threonine-protein kinase (Mus musculus) (UniProt P31750); experiment: Induction of Akt phosphorylation in mouse C2C12 cells up to 10 nM after 2 days by Western blot analysis; format: cell-based
Sequence of RAC-alpha serine/threonine-protein kinase (Mus musculus) (P31750 whole entry): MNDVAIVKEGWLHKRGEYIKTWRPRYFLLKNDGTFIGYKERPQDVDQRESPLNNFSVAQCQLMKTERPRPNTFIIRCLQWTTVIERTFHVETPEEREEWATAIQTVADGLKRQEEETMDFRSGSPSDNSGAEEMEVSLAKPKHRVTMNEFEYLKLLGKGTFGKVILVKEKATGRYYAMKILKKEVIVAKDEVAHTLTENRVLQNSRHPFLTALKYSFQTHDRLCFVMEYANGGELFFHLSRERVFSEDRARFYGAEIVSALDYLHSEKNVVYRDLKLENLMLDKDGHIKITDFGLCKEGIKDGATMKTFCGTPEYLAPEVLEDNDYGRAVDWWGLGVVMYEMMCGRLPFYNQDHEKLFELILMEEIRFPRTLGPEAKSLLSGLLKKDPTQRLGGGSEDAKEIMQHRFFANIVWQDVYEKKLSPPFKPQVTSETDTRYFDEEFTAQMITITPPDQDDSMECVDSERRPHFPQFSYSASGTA

Compound | Activity (C2C12 [1]) | Activity (C2C12 [2]) | Activity (C2C12 [3]) | Activity (C2C12 [4]) | Activity (C2C12 [5]) | fold change (FC) [6] | Activity (C2C12 [7]) | Activity (C2C12 [8]) | Activity [9]
COc1cc2c(cc1OC)-c1cc3ccc4c(c3c[n+]1CC2)OCO4 | Active | Active | Non-Toxic |  |  |  |  |  | 
OC1c2c(ccc3c2OCO3)C=C2c3cc4c(cc3CCN21)OCO4 (centres undefined) | Active | Active | Non-Toxic |  |  |  |  |  | 
COc1ccc2cc3[n+](cc2c1OC)CCc1cc2c(cc1-3)OCO2 [BERBERINE] | Active | Active | Non-Toxic |  |  |  |  |  | 
COc1cc2c(cc1O)CC[n+]1cc3c(OC)c(OC)ccc3cc1-2 [JATRORRHIZINE] | Active | Active | Non-Toxic |  |  |  |  |  | 
COc1ccc2c(c1O)-c1c(O)c(OC)cc3c1[C@H](C2)[N+](C)(C)CC3 [MAGNOFLORINE] | Active | Active | Non-Toxic | Dose-dependent effect | Dose-dependent effect | 6 | Dose-dependent effect | Dose-dependent effect | Active
COc1cc2c(cc1OC)-c1cc3ccc(OC)c(OC)c3c[n+]1CC2 [PALMITINE] | Active | Active | Non-Toxic |  |  |  |  |  | 
